Format in all cases: in vivo
What all share (conditions): 250 g/h, evaluated after 13 days

Experiment [1] has as its system Alopecurus myosuroides (ALOMY). The experiment in a line: Post-emergence herbicidal glasshouse test, percentage damage. In a few lines: (§1)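 Spray: 250 g/h, aqueous acetone/water 50:50 + 0.5% Tween 20; pre-em 1 d after sowing, post-em at 8 d. Glasshouse 24/16 °C, 14 h light, 65% RH, watered twice daily. Read % damage at 13 d, scored 1–5 (5=80-100%).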
Experiment [2] concerns Echinochloa crus-galli (ECHCG). Described as above. An outline of the steps:
as §1

In experiment [3] the test system is Lolium perenne (LOLPE). Described as above. An outline of the steps:
as §1

The test system of experiment [4] is Avena fatua (AVEFA). Described as above. In a few lines:
as §1

For experiment [5], the system named is Setaria faberi (SETFA). The description is as above. An outline of the steps: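 Percentage damage was scored 13 days after treatment on a five-point scale (1=0-19% to 5=80-100%). Treatments were post-emergence sprays on 8-day-old wheat, barley and SETFA plants in a glasshouse (24/16 °C day/night, 14 h light, 65% humidity), using acetone/water 50:50 with 0.5% Tween 20 at the stated rates. Wheat additionally received cloquintocet-mexyl safener at 50 g/ha.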

For experiment [6], the system named is Alopecurus myosuroides (ALOMY). As to the kind of experiment: Pre-emergence herbicidal glasshouse test, percentage damage. An outline of the steps: as §1
The test system of experiment [7] is Echinochloa crus-galli (ECHCG). The experiment is described as above. An outline of the steps: as §1
Experiment [8] relates to Lolium perenne (LOLPE). The description is as above. In a few lines:
as §1

Experiment [9] relates to Setaria faberi (SETFA). The experiment is described as above. In a few lines:
as §1

For experiment [10], the system named is Avena fatua (AVEFA). The experiment is described as above. In a few lines: as §1

SMILES strings stand for the structures.

Turning to `CC#Cc1cc(C)c(C2C(=O)CC3(CCN(C(=O)NC(=O)c4ccc(C(F)(F)F)cn4)CC3)CC2=O)c(C)c1` [Compound A168], the “ALOMY POST percentage damage (five point scale)” value (“ALOMY POST percentage damage” below) in experiment [1] is reported as 4 (4=60-79%). For the same compound, the “ECHCG POST percentage damage (five point scale)” value (from here on “ECHCG POST percentage damage”) in experiment [2] was 5 (5=80-100%). The “LOLPE POST percentage damage (five point scale)” value (shortened to “LOLPE POST percentage damage”) in the experiment with Lolium perenne (LOLPE) [3] was 4 (4=60-79%). For the same compound, the “AVEFA POST percentage damage (five point scale)” value (“AVEFA POST percentage damage” below) with Avena fatua (AVEFA) [4] is given as 4 (4=60-79%). The “SETFA POST percentage damage (five point scale)” value (from here on “SETFA POST percentage damage”) in the experiment on Setaria faberi (SETFA) [5] was 4 (4=60-79%). The “ALOMY PRE percentage damage (five point scale)” value (shortened to “ALOMY PRE percentage damage”) in experiment [6] was 4 (4=60-79%). Also, the “ECHCG PRE percentage damage (five point scale)” value (shortened to “ECHCG PRE percentage damage”) in experiment [7] is recorded as 5 (5=80-100%). Moreover, the “LOLPE PRE percentage damage (five point scale)” value (shortened to “LOLPE PRE percentage damage”) in the experiment on Lolium perenne (LOLPE) [8] is given as 4 (4=60-79%). Also, the “SETFA PRE percentage damage (five point scale)” value (shortened to “SETFA PRE percentage damage”) with Setaria faberi (SETFA) [9] is on record as 5 (5=80-100%). Also, the “AVEFA PRE percentage damage (five point scale)” value (shortened to “AVEFA PRE percentage damage”) with Avena fatua (AVEFA) [10] is reported as 4 (4=60-79%).
For the compound `CC#Cc1cc(C)c(C2C(=O)CC3(CCN(C(=O)[C@H]4COCCO4)CC3)CC2=O)c(C)c1` [Compound A173], in [1], the “ALOMY POST percentage damage” value was 5 (5=80-100%). The “ECHCG POST percentage damage” value in experiment [2] is on record as 5 (5=80-100%). Besides, the “LOLPE POST percentage damage” value with Lolium perenne (LOLPE) [3] is on record as 5 (5=80-100%). Also, in the experiment with Avena fatua (AVEFA) [4], the “AVEFA POST percentage damage” value is given as 5 (5=80-100%). Also, the “SETFA POST percentage damage” value in the experiment on Setaria faberi (SETFA) [5] is recorded as 5 (5=80-100%). Besides, in [6], the “ALOMY PRE percentage damage” value is on record as 5 (5=80-100%). Moreover, in [7], the “ECHCG PRE percentage damage” value is reported as 5 (5=80-100%). The “LOLPE PRE percentage damage” value in the experiment on Lolium perenne (LOLPE) [8] was 5 (5=80-100%). Besides, the “SETFA PRE percentage damage” value in the experiment with Setaria faberi (SETFA) [9] is reported as 5 (5=80-100%). In the experiment on Avena fatua (AVEFA) [10], the “AVEFA PRE percentage damage” value was 5 (5=80-100%).
Regarding `CC#Cc1cc(C)c(C2=C(OC(=O)OC)CC3(CCN(S(=O)(=O)CC)CC3)CC2=O)c(C)c1` [Compound P7, [9-(2,6-dimethyl-4-prop-1-ynyl-phenyl)-3-ethylsufonyl-10-oxo-3-azaspiro[5.5]undec-8-en-8-yl] methyl carbonate], the “ALOMY POST percentage damage” value in [1] is on record as 5 (5=80-100%). Further, the “ECHCG POST percentage damage” value in experiment [2] was 5 (5=80-100%). Also, the “LOLPE POST percentage damage” value in the experiment with Lolium perenne (LOLPE) [3] was 5 (5=80-100%). Besides, the “AVEFA POST percentage damage” value with Avena fatua (AVEFA) [4] is reported as 5 (5=80-100%). Also, the “SETFA POST percentage damage” value in the experiment on Setaria faberi (SETFA) [5] was 5 (5=80-100%). Further, the “ALOMY PRE percentage damage” value in experiment [6] is recorded as 5 (5=80-100%). Besides, the “ECHCG PRE percentage damage” value in [7] is 5 (5=80-100%). The “LOLPE PRE percentage damage” value in the experiment with Lolium perenne (LOLPE) [8] is listed as 5 (5=80-100%). Further, the “SETFA PRE percentage damage” value with Setaria faberi (SETFA) [9] is listed as 5 (5=80-100%). The “AVEFA PRE percentage damage” value with Avena fatua (AVEFA) [10] is on record as 5 (5=80-100%).
Consider `CC#Cc1cc(C)c(C2C(=O)CC3(CCN(C(=O)c4ccc(C#N)nc4)CC3)CC2=O)c(C)c1` [Compound A191], for which, in [1], the “ALOMY POST percentage damage” value is listed as 5 (5=80-100%). Moreover, the “ECHCG POST percentage damage” value in experiment [2] is 5 (5=80-100%). In addition, the “LOLPE POST percentage damage” value in the experiment on Lolium perenne (LOLPE) [3] is given as 5 (5=80-100%). For the same compound, the “AVEFA POST percentage damage” value with Avena fatua (AVEFA) [4] was 5 (5=80-100%). In the experiment on Setaria faberi (SETFA) [5], the “SETFA POST percentage damage” value is 5 (5=80-100%). Moreover, the “ALOMY PRE percentage damage” value in experiment [6] is recorded as 2 (2=20-39%). The “ECHCG PRE percentage damage” value in experiment [7] is 5 (5=80-100%). The “LOLPE PRE percentage damage” value in the experiment with Lolium perenne (LOLPE) [8] is recorded as 5 (5=80-100%). Besides, the “SETFA PRE percentage damage” value in the experiment with Setaria faberi (SETFA) [9] is on record as 5 (5=80-100%). Further, in the experiment with Avena fatua (AVEFA) [10], the “AVEFA PRE percentage damage” value is 4 (4=60-79%).
For `CC#Cc1cc(C)c(C2C(=O)CC3(CCN(C(=O)C4=NOCC4)CC3)CC2=O)c(C)c1` [Compound A88], the “ALOMY POST percentage damage” value in [1] is 5 (5=80-100%). Also, the “ECHCG POST percentage damage” value in experiment [2] is 5 (5=80-100%). Moreover, the “LOLPE POST percentage damage” value in the experiment on Lolium perenne (LOLPE) [3] is listed as 5 (5=80-100%). Besides, in the experiment with Avena fatua (AVEFA) [4], the “AVEFA POST percentage damage” value is given as 5 (5=80-100%). Besides, the “SETFA POST percentage damage” value in the experiment with Setaria faberi (SETFA) [5] is given as 5 (5=80-100%). Moreover, the “ALOMY PRE percentage damage” value in experiment [6] is listed as 5 (5=80-100%). Also, in [7], the “ECHCG PRE percentage damage” value is reported as 5 (5=80-100%). Further, in the experiment on Lolium perenne (LOLPE) [8], the “LOLPE PRE percentage damage” value is on record as 5 (5=80-100%). Further, the “SETFA PRE percentage damage” value in the experiment on Setaria faberi (SETFA) [9] was 5 (5=80-100%). Besides, in the experiment on Avena fatua (AVEFA) [10], the “AVEFA PRE percentage damage” value is given as 5 (5=80-100%).

Values taken from patent publication US12043599B2, “Herbicidal compounds” (SYNGENTA PARTICIPATIONS AG, priority 2018, dated 2024).
